The values below come from US20250108051A1, “THERAPEUTIC AGENT FOR CANCER” (TOHOKU UNIVERSITY, priority 2022, published 2025).

Series [1] concerns cleaved PARP in RKO cell line. Briefly: Western blot of cleaved PARP under RARα or RXRα knockdown. Type of series: cell-based. The protocol: To the collected cells were added Radioimmunoprecipitation assay buffer (composition: 50 mM Tris-HCL, pH 8.0, 150 mM Sodium Chloride, 0.5 w/v % Sodium Deoxycholate, 0.1 w/v % Sodium Dodecyl Sulfate, 1.0 w/v % NP-40 substitute) supplemented with Halt Protease Inhibitor Cocktail (Thermo Fisher Scientific Inc.), followed by dissolving the cells, and a protein was extracted. The extracted protein was quantified by a bicinchoninic acid method. A protein sample in an amount of 5 μg was separated by polyacrylamide electrophoresis, and the separated protein sample was transferred to Polyvinylidene difluoride membrane (PVDF membrane, Merck Millipore Ltd.), followed by blocking with Odyssey Blocking Buffer (Licor Inc.) for 1 hour at room temperature. Thereafter, the PVDF membrane after transfer was immersed in a primary antibody solution, followed by culturing at room temperature for 2 hours or at 4° C. overnight. After the primary antibody reaction, the PVDF membrane was washed with Tris Buffered Saline with Tween 20 (TBS-T) for 5 minutes at room temperature for three times and immersed in a secondary antibody, followed by incubating at room temperature for 1 hour. As the secondary antibody, Goat anti-Rabbit IgG (H+L) Highly Cross-Adsorbed Secondary Antibody Alexa Fluor680 (Thermo Fisher Scientific Inc.) and Goat anti-Mouse IgG (H+L) Highly Cross-Adsorbed Secondary Antibody Alexa Fluor680 (Thermo Fisher Scientific Inc.) were used at a dilution ratio of 1:1000. Thereafter, washing with TBS-T for 5 minutes was performed three times, and a measurement of signals was performed using an Odyssey Infrared Imaging System (Licor Inc.). […] The above was performed three or more times as independent experiments. Student's test was used for a significant difference test.
A general note: A western blot detects proteins with antibodies after separation by electrophoresis.

Another series deals with HT29 cells. Briefly: Xenograft mouse model (Test Example 5), tumor volume and body weight. Type of series: in vivo. Particulars: nude mice, ATRA 10 mg/kg oral daily for 21 days. As to the method:
As an in vivo test, the therapeutic agent for cancer according to the embodiment was administered to a mouse, and the antitumor effect was verified based on a change in tumor size (volume). Xenograft mouse model was prepared as follows. Female nude mice (BALB/c-nu) were purchased from Charles River Laboratories Japan (Yokohama, Japan) and raised in a specific pathogen-free environment. The above-described HT29 cells cultured were collected with trypsin, and suspended in a mixed solution of a culture medium and a Corning Matrigel basement membrane matrix (Corning, NY, USA) so as to reach 1×10^7 cells/ml. Into a left abdominal region of each mouse was subcutaneously implanted 0.1 mL of cell suspension. […] Encorafenib was orally administered at a dose of 10 mg/kg daily, and ATRA was orally administered at a dose of 10 mg/kg daily for 21 days. Feeding needles for mice were used for oral administration. Cetuximab was intraperitoneally administered twice a week at a dose of 20 mg/kg. Each solvent was used as the control. The tumor size and the body weight were measured every three days after the start of the therapy, and the volume was estimated using a calculation formula (tumor volume (mm^3)=½× major axis (mm)×[…]). […]

Take `CC1=C(/C=C/C(C)=C/C=C/C(C)=C/C(=O)O)C(C)(C)CCC1` [ATRA, all-trans retinoic acid]: the “enhancement by TRE of expression level of cleaved PARP caused by ENC+BIN” value in series [1] (RARα inhibited) was “about 8 times”; in series [1] (RXRα inhibited), “about 1.5 times”; in series [1] (si-NC), “about 13 times”. The figures for the “enhancement by TRE of expression level of cleaved PARP caused by ENC+BIN+CET” value in series [1] (RARα inhibited), in series [1] (RXRα inhibited) and in series [1] (si-NC) were “about 3 times”, “about 2 times” and “about 11 times”, respectively. Further, the “side effects (body weight)” value in the series on HT29 cells is reported as “does not cause any significant side effects”. The “tumor volume (tumor size) change” value in the series with HT29 cells (encorafenib 10 mg/kg oral daily, cetuximab 20 mg/kg i.p. twice a week) is “increased with day”.
